Usually Kd stands for the constant that tells how readily two partners part at equilibrium. Low values mean a tighter complex, high ones a looser complex.

15 compounds from paper PMC6834077, “The evolving story of AtzT, a periplasmic binding protein” (Acta Crystallographica. Section D, Structural Biology, 2019) can be followed below.

The target in this experiment is AtzT (Pseudomonas sp. (strain ADP), UniProt Q936X6). As to the kind of experiment: Surface plasmon resonance (SPR) binding to immobilized AtzT, 1:1 steady-state affinity model. In general terms: SPR reads the build-up and loss of mass on a sensor chip optically.
Setting [1] is: Biacore S200, CM5 chip, 293 K, HBS-P+ buffer with 2%(v/v) DMSO, mean ± standard deviation (n = 3).

Where “and” joins values, the source holds several entries; their conditions need not be identical. Equal values may be shown once. Read-outs that look alike come from different tables or passages of the source. A value given as a limit tells only on which side of the number the result lay.

Chain of AtzT (Q936X6 27-360 limits assumed): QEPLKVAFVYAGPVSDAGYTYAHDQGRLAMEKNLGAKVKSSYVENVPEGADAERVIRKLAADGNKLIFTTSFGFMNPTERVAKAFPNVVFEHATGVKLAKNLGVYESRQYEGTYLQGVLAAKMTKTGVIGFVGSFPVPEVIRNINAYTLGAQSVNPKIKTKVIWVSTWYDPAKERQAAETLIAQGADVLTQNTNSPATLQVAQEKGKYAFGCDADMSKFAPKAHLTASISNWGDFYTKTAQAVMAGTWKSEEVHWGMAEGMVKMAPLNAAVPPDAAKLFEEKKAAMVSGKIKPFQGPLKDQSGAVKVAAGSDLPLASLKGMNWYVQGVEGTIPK

Compound `CCC1(CC)C(=O)NC(=O)NC1=O` [Barbitone] yielded a Kd under setting [1] of over 8000 µM. `Nc1ncnc2nc[nH]c12` [Adenine]: the Kd is about 2.5 µM. Besides, binding under setting [1] was put at a Kd of 2.5 ± 0.3 µM. Regarding `Nc1nc2c(ncn2[C@@H]2O[C@H](COP(=O)(O)OP(=O)(O)OP(=O)(O)O)[C@@H](O)[C@H]2O)c(=O)[nH]1` [GTP], under setting [1], the Kd is over 8000 µM.

With `OB(O)c1ccc(I)cc1` [4-Iodophenylboronic acid], binding under setting [1] was characterised by a dissociation constant (Kd) of 5000 ± 1000 µM. `Cc1c[nH]c(=O)[nH]c1=O` [Thymine]: under setting [1], the Kd stood at 620 ± 40 µM. As to `Nc1nc2nc[nH]c2c(=O)[nH]1` [Guanine], the Kd is about 0.11 µM. Besides, under setting [1], the Kd came out at 0.11 ± 0.02 µM. For the same compound, the “time in which the majority of the guanine dissociates from AtzT” value (Supplementary Fig. S4) is about 20 s. Under setting [1], `Nc1nc(N)nc(O)n1` [Ammeline] had an equilibrium dissociation constant (Kd) of 0.36 ± 0.02 µM. In addition, the “fold difference in K D between ammeline and ammelide” value (ammeline vs ammelide) is over 250 fold.

Take `Nc1cc[nH]c(=O)n1` [Cytosine]: binding under setting [1] was characterised by a dissociation constant (Kd) of 800 ± 90 µM. In turn, `O=c1[nH]c(=O)[nH]c(=O)[nH]1` [Cyanuric acid] displayed a Kd under setting [1] of 340 ± 30 µM. In the case of `O=C(O)c1c(Br)c(Br)c(C(=O)O)c(Br)c1Br` [Tetrabromoterephthalic acid], the Kd under setting [1] is over 8000 µM.

Take `CCNc1nc(O)nc(NC(C)C)n1` [2-Hydroxyatrazine]: the “fold tighter binding than atrazine” value (2-hydroxyatrazine vs atrazine) was ~700 fold and > 600 fold. Besides, the Kd under setting [1] amounted to 2.2 ± 0.2 µM.

The compound `O=c1cc[nH]c(=O)[nH]1` [Uracil] displayed a Kd under setting [1] of 1600 ± 300 µM. As for `O=C1CC(=O)NC(=O)N1` [Barbaturic acid], under setting [1], the Kd is over 8000 µM. In turn, `CCNc1nc(Cl)nc(NC(C)C)n1` [Atrazine] came in with a Kd of about 1500 µM. Moreover, the Kd under setting [1] came out at 1500 ± 200 µM.

Under setting [1], `Nc1nc(N)nc(N)n1` [Melamine] showed a Kd of over 400 µM.
